Calls of active or inactive are those of the source. The rule behind the calls is not given here.
Key:
[1] = Oral bioavailability in dog; format: ADME, organism-based, Canis lupus familiaris; conditions: in vivo
[2] = Volume of distribution at steady state in dog; format: ADME, Canis lupus familiaris; conditions: in vivo, read-out: Vdss
[3] = molecular target: T1, Poly [ADP-ribose] polymerase tankyrase-2 (Homo sapiens, UniProt Q9H2K2); assay: Inhibition of TNKS2 (unknown origin)
T1 sequence (Q9H2K2 whole entry): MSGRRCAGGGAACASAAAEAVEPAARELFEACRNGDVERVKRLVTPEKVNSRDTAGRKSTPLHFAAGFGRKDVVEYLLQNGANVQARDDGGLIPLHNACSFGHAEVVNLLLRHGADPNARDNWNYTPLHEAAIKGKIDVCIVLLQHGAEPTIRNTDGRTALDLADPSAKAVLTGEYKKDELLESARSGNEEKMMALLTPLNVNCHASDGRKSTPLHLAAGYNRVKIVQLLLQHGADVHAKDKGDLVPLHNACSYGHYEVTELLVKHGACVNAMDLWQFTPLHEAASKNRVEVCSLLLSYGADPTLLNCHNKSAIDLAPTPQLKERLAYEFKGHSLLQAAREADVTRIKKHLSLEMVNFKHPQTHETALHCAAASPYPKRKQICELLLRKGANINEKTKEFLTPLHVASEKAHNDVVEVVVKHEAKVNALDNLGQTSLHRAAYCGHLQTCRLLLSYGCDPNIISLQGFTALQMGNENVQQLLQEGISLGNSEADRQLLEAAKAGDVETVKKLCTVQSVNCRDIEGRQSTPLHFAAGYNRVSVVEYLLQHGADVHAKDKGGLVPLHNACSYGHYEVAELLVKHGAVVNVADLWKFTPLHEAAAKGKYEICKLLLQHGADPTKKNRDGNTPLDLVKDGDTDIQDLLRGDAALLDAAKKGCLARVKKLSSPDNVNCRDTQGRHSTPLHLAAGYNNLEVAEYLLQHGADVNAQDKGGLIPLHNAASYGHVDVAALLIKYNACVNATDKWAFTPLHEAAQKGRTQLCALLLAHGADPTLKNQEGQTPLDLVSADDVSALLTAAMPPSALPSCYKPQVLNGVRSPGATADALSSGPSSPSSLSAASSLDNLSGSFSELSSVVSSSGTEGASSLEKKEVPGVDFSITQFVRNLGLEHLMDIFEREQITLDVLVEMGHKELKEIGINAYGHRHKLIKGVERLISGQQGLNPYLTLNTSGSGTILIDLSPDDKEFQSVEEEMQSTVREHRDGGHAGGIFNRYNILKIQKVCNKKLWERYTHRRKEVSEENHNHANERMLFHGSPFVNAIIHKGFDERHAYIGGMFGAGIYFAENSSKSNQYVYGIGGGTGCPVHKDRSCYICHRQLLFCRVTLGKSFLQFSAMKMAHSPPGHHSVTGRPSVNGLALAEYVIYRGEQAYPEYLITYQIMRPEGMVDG

[4] = Oral bioavailability in rat; format: ADME, organism-based; conditions: in vivo
[5] = molecular target: Protein mono-ADP-ribosyltransferase PARP14 (Homo sapiens, UniProt Q460N5); assay: Inhibition of N-terminal GST/6xHis/TEV-tagged human recombinant PARP14 (1470 to 1801 residues) expressed in Sf9 insect cells by chemiluminescence assay
[6] = molecular target: Poly [ADP-ribose] polymerase 2 (Homo sapiens, UniProt Q9UGN5); assay: Inhibition of N-terminal GST-tagged human recombinant PARP2 (2 to 583 residues) expressed in baculovirus infected Sf9 insect cells by chemiluminescence assay
[7] = molecular target: Protein mono-ADP-ribosyltransferase PARP11 (Homo sapiens, UniProt Q9NR21); assay: Inhibition of N-terminal GST-tagged/C-terminal 6xHis-tagged human recombinant PARP11 (8 to 338 residues) expressed in Sf9 insect cells by chemiluminescence assay
[8] = Hepatic blood flow in mouse; format: ADME, organism-based
Adenosine receptor A3 = Adenosine receptor A3 (Homo sapiens, UniProt P0DMS8); assay: Inhibition of A3 adenosine receptor (unknown origin); format: toxicity
[9] = Unbound fraction in dog plasma; format: ADME, cell-free, Canis lupus familiaris
[10] = Toxicity in CB17-SCID mouse xenografted with human COLO 320 cells assessed as reduction in body weight at 20 mg/kg, po administered twice daily via gavage for 20 days and measured twice weekly; format: organism-based; conditions: in vivo, 480 h, time 20 day
[11] = Unbound fraction in human plasma; format: ADME, cell-free
[12] = molecular target: Poly [ADP-ribose] polymerase 1 (Homo sapiens, UniProt P09874); assay: Inhibition of N-terminal GST-tagged human recombinant PARP1 (2 to 1014 residues) expressed in Sf9 insect cells by chemiluminescence assay
HCT-15 = assay: Cytotoxicity against human HCT-15 cells assessed as reduction in cell growth at 0.01 to 10 uM incubated for 14 days by resazurin dye based assay; format: functional; conditions: dose 0.01-10 µM, time 14.0 day
[13] = Half life in mouse; format: ADME, organism-based; conditions: in vivo
[14] = Oral bioavailability in mouse; format: ADME, organism-based; conditions: in vivo
[15] = Modulation of Wnt/beta-catenin signaling pathway in human DLD-1 cells assessed as induction of AXIN2 accumulation incubated for 24 hrs by ELISA; format: cell-based; conditions: DLD-1, 24 h
[16] = Volume of distribution at steady state in mouse; format: ADME, organism-based; conditions: in vivo, read-out: Vdss
CYP450 = CYP450 (Homo sapiens, UniProt P04798+P05177+P05181+P08684+P10632+P10635+P11509+P11712+P13584+P20813+P20815+P20853+P24462+P24903+P33260+P33261+P51589+P78329+P98187+Q02928+Q08477+Q16678+Q16696+Q5TCH4+Q6VVX0+Q7Z449+Q8TAV3+Q96SQ9+Q9HB55); assay: Inhibition of CYP450 (unknown origin); format: ADME, protein assay
[17] = molecular target: T1, Poly [ADP-ribose] polymerase tankyrase-2; assay: Inhibition of TNKS2 (unknown origin) using biotinylated NAD as substrate assessed as inhibition of autoPARsylation activity incubated for 1 hr by ELISA

Sequence of Adenosine receptor A3 (P0DMS8 whole entry): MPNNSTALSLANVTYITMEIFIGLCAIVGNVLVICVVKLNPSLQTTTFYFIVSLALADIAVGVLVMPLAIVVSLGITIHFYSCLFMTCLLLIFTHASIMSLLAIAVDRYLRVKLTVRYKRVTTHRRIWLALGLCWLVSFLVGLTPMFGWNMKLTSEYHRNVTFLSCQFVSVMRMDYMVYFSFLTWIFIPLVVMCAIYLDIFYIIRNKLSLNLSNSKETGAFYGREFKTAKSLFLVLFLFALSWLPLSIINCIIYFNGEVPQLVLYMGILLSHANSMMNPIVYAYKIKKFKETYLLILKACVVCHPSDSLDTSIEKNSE
Sequence of Protein mono-ADP-ribosyltransferase PARP14 (Q460N5 whole entry, the tested form may be a part): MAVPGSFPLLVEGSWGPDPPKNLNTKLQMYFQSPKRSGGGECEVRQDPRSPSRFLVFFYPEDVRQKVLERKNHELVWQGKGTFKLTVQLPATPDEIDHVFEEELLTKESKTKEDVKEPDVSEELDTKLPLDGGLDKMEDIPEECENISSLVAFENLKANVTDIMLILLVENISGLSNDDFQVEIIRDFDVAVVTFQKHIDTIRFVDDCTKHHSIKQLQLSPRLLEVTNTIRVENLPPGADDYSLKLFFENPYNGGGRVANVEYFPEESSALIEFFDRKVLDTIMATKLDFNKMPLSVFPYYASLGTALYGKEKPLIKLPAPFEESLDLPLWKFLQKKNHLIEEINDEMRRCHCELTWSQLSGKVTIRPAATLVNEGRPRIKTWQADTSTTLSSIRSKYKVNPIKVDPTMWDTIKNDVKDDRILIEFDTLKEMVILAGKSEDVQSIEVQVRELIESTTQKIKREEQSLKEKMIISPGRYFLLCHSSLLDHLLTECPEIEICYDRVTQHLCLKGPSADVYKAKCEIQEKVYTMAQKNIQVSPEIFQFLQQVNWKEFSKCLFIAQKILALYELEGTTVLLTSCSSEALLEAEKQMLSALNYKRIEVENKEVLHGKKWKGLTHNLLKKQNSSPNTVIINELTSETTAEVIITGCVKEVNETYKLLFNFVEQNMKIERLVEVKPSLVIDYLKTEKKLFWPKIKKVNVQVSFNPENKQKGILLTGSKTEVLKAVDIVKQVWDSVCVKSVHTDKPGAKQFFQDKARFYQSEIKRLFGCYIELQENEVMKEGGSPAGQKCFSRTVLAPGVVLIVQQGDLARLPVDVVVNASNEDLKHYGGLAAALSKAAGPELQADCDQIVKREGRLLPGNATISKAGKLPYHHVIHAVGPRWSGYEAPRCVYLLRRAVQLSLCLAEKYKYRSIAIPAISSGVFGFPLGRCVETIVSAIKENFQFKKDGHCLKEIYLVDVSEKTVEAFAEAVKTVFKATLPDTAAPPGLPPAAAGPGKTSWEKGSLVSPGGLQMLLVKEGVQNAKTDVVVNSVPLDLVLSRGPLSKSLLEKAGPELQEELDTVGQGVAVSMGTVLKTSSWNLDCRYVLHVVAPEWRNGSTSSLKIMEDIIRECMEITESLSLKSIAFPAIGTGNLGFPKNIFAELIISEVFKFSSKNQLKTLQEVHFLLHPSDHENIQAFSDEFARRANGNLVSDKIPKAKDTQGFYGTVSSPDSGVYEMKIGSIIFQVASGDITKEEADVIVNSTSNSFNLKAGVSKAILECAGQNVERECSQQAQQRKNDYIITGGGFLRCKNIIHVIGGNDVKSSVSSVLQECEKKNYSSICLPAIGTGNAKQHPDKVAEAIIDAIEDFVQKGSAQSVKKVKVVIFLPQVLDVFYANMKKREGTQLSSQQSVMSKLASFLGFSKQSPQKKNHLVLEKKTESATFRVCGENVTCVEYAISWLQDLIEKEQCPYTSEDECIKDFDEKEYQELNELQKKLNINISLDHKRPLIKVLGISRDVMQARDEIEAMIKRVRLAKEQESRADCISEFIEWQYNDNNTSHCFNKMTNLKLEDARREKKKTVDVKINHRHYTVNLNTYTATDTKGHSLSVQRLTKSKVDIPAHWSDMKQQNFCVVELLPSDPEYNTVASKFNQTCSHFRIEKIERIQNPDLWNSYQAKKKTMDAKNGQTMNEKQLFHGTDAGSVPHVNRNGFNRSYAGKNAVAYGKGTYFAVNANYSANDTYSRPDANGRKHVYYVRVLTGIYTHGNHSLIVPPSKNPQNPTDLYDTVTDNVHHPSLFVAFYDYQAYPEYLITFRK
Sequence of Poly [ADP-ribose] polymerase 2 (Q9UGN5 whole entry, the tested form may be a part): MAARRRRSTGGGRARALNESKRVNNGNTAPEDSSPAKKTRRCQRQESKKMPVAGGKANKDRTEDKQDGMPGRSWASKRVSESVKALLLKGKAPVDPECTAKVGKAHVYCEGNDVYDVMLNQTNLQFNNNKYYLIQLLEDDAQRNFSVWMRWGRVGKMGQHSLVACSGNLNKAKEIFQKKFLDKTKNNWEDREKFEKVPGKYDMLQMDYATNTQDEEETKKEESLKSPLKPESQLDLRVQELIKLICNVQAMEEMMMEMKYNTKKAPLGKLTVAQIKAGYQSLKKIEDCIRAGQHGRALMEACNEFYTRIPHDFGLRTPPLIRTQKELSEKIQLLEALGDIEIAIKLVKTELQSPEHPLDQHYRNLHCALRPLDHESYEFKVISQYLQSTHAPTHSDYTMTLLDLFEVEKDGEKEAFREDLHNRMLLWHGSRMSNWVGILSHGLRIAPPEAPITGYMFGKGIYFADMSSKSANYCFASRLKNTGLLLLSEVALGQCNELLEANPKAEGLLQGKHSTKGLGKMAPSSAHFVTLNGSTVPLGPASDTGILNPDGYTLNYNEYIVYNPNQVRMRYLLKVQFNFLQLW
Sequence of Protein mono-ADP-ribosyltransferase PARP11 (Q9NR21 whole entry, the tested form may be a part): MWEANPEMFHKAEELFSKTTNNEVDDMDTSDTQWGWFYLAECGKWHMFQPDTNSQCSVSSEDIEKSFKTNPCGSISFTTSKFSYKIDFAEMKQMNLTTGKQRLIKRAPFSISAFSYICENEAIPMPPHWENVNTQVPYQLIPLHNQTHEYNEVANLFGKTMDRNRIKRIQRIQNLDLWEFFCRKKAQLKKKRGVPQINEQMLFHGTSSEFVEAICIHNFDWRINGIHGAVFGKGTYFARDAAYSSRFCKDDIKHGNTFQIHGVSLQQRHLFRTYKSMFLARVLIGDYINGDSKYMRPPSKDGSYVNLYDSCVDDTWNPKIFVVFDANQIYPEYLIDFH
Sequence of Poly [ADP-ribose] polymerase 1 (P09874 whole entry, the tested form may be a part): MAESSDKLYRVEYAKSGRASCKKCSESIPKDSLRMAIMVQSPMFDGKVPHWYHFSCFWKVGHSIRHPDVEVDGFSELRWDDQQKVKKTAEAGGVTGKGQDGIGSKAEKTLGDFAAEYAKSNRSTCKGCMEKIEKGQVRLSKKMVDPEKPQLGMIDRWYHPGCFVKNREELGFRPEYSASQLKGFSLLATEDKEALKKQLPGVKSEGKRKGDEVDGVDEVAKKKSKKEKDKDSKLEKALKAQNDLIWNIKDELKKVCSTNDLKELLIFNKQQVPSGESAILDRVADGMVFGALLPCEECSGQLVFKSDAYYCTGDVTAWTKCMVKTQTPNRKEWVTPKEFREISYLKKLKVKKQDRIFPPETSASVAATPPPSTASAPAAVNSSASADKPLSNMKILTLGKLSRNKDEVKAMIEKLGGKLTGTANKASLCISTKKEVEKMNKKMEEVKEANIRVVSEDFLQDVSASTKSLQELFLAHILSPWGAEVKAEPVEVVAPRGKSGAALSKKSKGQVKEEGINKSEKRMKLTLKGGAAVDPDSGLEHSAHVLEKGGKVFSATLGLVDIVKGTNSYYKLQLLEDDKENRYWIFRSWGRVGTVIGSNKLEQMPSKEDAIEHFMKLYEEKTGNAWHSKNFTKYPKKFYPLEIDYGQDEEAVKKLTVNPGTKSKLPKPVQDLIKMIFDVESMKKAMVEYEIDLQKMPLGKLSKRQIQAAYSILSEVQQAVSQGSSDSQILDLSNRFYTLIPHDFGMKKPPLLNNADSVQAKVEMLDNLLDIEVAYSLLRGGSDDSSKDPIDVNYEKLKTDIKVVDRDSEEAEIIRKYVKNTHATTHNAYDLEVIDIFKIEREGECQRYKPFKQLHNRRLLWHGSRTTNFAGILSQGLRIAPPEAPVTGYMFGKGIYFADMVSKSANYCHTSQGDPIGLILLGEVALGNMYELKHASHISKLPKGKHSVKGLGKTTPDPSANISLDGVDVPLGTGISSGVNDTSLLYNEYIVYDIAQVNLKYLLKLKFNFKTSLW

- bioavailability [1]: 37%
- Vd [2]: 2.17 L/kg
- IC50 [3]: 1.4 nM
- bioavailability [4]: 41%
- IC50 [5]: > 10000 nM
- IC50 [6]: 200 nM
- IC50 [7]: 67 nM
- QH [8]: 50%
- fraction unbound [9]: 0.14
- fraction unbound [11]: 0.096
- IC50 [12]: 140 nM
- half-life [13]: 58.6 min
- bioavailability [14]: 77%
- EC50 [15]: 16 nM
- Vd [16]: 2.43 L/kg
- IC50 (CYP450): > 50000 nM
- IC50 [17]: 0.9 nM
SMILES: Cc1ccc2c(=O)[nH]c(-c3ccc(C(C)(C)O)cc3)cn12
- IC50 (Adenosine receptor A3): 10000 nM
- Activity [10]: Non-Toxic
- Activity (HCT-15): inactive
